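1) Cells in 96-well plates. 2) Compound, 48 h, 5 concentrations. 3) Linear interpolation between surrounding doses. 4) Unreached endpoint = highest concentration. Here, GI50 denotes the concentration required for 50% inhibition of growth.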 Calls of active or inactive are those of the source. No stated cut-off is given here; in the data, active = GI50 up to about 1.1 µM and inactive = higher.
Tests used:
Assay in all cases: NCI anticancer screen, dose series, 48 h
786-0 = system: 786-0
A498 = system: A498
A549 = system: A549
ACHN = system: ACHN
CCRF-CEM = system: CCRF-CEM
COLO 205 = system: COLO 205
DLD-1 = system: DLD-1
DMS-114 = system: DMS-114
DMS-273 = system: DMS-273
EKVX = system: EKVX
HCC 2998 = system: HCC 2998
HCT-116 = system: HCT-116
HCT-15 = system: HCT-15
HL-60 = system: HL-60
HOP-18 = system: HOP-18
HOP-92 = system: HOP-92
HT-29 = system: HT-29
IGROV-1 = system: IGROV-1
K562 = system: K562
KM-20L2 = system: KM-20L2
LOX IMVI = system: LOX IMVI
LXFL 529 = system: LXFL 529
M14 = system: M14
M19-MEL = system: M19-MEL
MOLT-4 = system: MOLT-4
Malme-3M = system: Malme-3M
NCI-H226 = system: NCI-H226
NCI-H23 = system: NCI-H23
NCI-H522 = system: NCI-H522
OVCAR-3 = system: OVCAR-3
OVCAR-4 = system: OVCAR-4
OVCAR-8 = system: OVCAR-8
RPMI-8226 = system: RPMI-8226
RXF 393 = system: RXF 393
RXF 631 = system: RXF 631
SF-268 = system: SF-268
SF-295 = system: SF-295
SF-539 = system: SF-539
SK-MEL-28 = system: SK-MEL-28
SK-MEL-5 = system: SK-MEL-5
SK-OV-3 = system: SK-OV-3
SN12C = system: SN12C
SNB-19 = system: SNB-19
SNB-75 = system: SNB-75
SNB-78 = system: SNB-78
SR = system: SR
SW-620 = system: SW-620
U-251 = system: U-251
UACC-257 = system: UACC-257
UACC-62 = system: UACC-62
UO-31 = system: UO-31
XF498 = system: XF498
CAKI-1 = system: CAKI-1
HOP-62 = system: HOP-62
KM12 = system: KM12
NCI-H460 = system: NCI-H460
OVCAR-5 = system: OVCAR-5
SK-MEL-2 = system: SK-MEL-2
TK-10 = system: TK-10

O=C1NC(=O)C(C(=O)C(=O)Nc2ccc(Br)cc2)C(=O)N1
GI50 (786-0): > 100 µM (inactive) | GI50 (A498): > 100 µM (inactive) | GI50 (A549): > 100 µM (inactive) | GI50 (ACHN): > 100 µM (inactive) | GI50 (CCRF-CEM): > 100 µM (inactive) | GI50 (COLO 205): > 100 µM (inactive) | GI50 (DLD-1): > 100 µM (inactive) | GI50 (DMS-114): > 100 µM (inactive) | GI50 (DMS-273): > 100 µM (inactive) | GI50 (EKVX): > 100 µM (inactive) | GI50 (HCC 2998): > 100 µM (inactive) | GI50 (HCT-116): > 100 µM (inactive) | GI50 (HCT-15): > 100 µM | GI50 (HL-60): > 100 µM (inactive) | GI50 (HOP-18): > 100 µM (inactive) | GI50 (HOP-92): > 100 µM (inactive) | GI50 (HT-29): > 100 µM (inactive) | GI50 (IGROV-1): > 100 µM (inactive) | GI50 (K562): > 100 µM (inactive) | GI50 (KM-20L2): > 100 µM (inactive) | GI50 (LOX IMVI): > 100 µM (inactive) | GI50 (LXFL 529): > 100 µM (inactive) | GI50 (M14): > 100 µM (inactive) | GI50 (M19-MEL): > 100 µM (inactive) | GI50 (MOLT-4): > 100 µM (inactive) | GI50 (Malme-3M): > 100 µM (inactive) | GI50 (NCI-H226): > 100 µM (inactive) | GI50 (NCI-H23): > 100 µM (inactive) | GI50 (NCI-H522): > 100 µM (inactive) | GI50 (OVCAR-3): > 100 µM (inactive) | GI50 (OVCAR-4): > 100 µM (inactive) | GI50 (OVCAR-8): > 100 µM (inactive) | GI50 (RPMI-8226): > 100 µM (inactive) | GI50 (RXF 393): 5.04 µM (inactive) | GI50 (RXF 631): > 100 µM (inactive) | GI50 (SF-268): > 100 µM (inactive) | GI50 (SF-295): > 100 µM (inactive) | GI50 (SF-539): > 100 µM (inactive) | GI50 (SK-MEL-28): > 100 µM (inactive) | GI50 (SK-MEL-5): > 100 µM (inactive) | GI50 (SK-OV-3): > 100 µM (inactive) | GI50 (SN12C): > 100 µM (inactive) | GI50 (SNB-19): > 100 µM (inactive) | GI50 (SNB-75): 12.1 µM (inactive) | GI50 (SNB-78): > 100 µM (inactive) | GI50 (SR): > 100 µM (inactive) | GI50 (SW-620): > 100 µM (inactive) | GI50 (U-251): > 100 µM (inactive) | GI50 (UACC-257): > 100 µM (inactive) | GI50 (UACC-62): > 100 µM (inactive) | GI50 (UO-31): > 100 µM (inactive) | GI50 (XF498): > 100 µM (inactive)

CC[n+]1c(/C=C/c2ccc(N(CCCl)CCCl)cc2)ccc2cc(Br)ccc21
GI50 (786-0): 1.84 µM (inactive) | GI50 (A498): 1310 µM (inactive) | GI50 (A549): 3.52 µM (inactive) | GI50 (ACHN): 3.17 µM (inactive) | GI50 (CAKI-1): 2.62 µM (inactive) | GI50 (CCRF-CEM): 0.345 µM (active) | GI50 (COLO 205): 69.7 µM (inactive) | GI50 (DLD-1): 2.71 µM (inactive) | GI50 (DMS-114): 0.662 µM (active) | GI50 (DMS-273): 244 µM (inactive) | GI50 (EKVX): 3.52 µM (inactive) | GI50 (HCC 2998): 1.38 µM (inactive) | GI50 (HCT-116): 131 µM (inactive) | GI50 (HCT-15): 14.9 µM | GI50 (HL-60): 0.246 µM (active) | GI50 (HOP-18): 6.14 µM (inactive) | GI50 (HOP-62): 3.43 µM (inactive) | GI50 (HOP-92): 1.06 µM (active) | GI50 (HT-29): 2.86 µM (inactive) | GI50 (IGROV-1): 0.574 µM (active) | GI50 (K562): 0.361 µM (active) | GI50 (KM-20L2): 3.13 µM (inactive) | GI50 (KM12): 1.68 µM (inactive) | GI50 (LOX IMVI): 1.47 µM (inactive) | GI50 (LXFL 529): 0.67 µM (active) | GI50 (M14): 1.87 µM (inactive) | GI50 (M19-MEL): 1.2 µM (inactive) | GI50 (MOLT-4): 1.46 µM (inactive) | GI50 (Malme-3M): 1.13 µM (inactive) | GI50 (NCI-H226): 1.82 µM (inactive) | GI50 (NCI-H23): 2.79 µM (inactive) | GI50 (NCI-H460): 2.65 µM (inactive) | GI50 (NCI-H522): 0.471 µM (active) | GI50 (OVCAR-3): 0.587 µM (active) | GI50 (OVCAR-4): 1.01 µM (active) | GI50 (OVCAR-5): 3.99 µM (inactive) | GI50 (OVCAR-8): 1.86 µM (inactive) | GI50 (RPMI-8226): 2.53 µM (inactive) | GI50 (RXF 393): 1.31 µM (inactive) | GI50 (RXF 631): 630 µM (inactive) | GI50 (SF-268): 1.61 µM (inactive) | GI50 (SF-295): 2.65 µM (inactive) | GI50 (SF-539): 1.55 µM (inactive) | GI50 (SK-MEL-28): 1.21 µM (inactive) | GI50 (SK-MEL-2): 0.382 µM (active) | GI50 (SK-MEL-5): 1.1 µM (active) | GI50 (SK-OV-3): 2.23 µM (inactive) | GI50 (SN12C): 2.48 µM (inactive) | GI50 (SNB-19): 1.22 µM (inactive) | GI50 (SNB-75): 0.312 µM (active) | GI50 (SNB-78): 0.76 µM (active) | GI50 (SR): 1.46 µM (inactive) | GI50 (SW-620): 1.93 µM (inactive) | GI50 (TK-10): 4.48 µM (inactive) | GI50 (U-251): 1.31 µM (inactive) | GI50 (UACC-257): 1.11 µM (active) | GI50 (UACC-62): 1.19 µM (inactive) | GI50 (UO-31): 15.1 µM (inactive) | GI50 (XF498): 0.275 µM (active)

From ChEMBL document CHEMBL1201862, “PubChem BioAssay data set” (2004)
